Literature values, collected in patent publication US20240002325A1, “OXYLIPINS, PROCESSES FOR MAKING THE SAME, AND METHODS FOR USING THE SAME” (THE TRUSTEES OF INDIANA UNIVERSITY, priority 2020, published 2024).

How the values were obtained:
[1] = tested on: flagellum-driven swimming and swarming motilities; settings: has been reported
bacterial biofilms = settings: in vitro; has been reported

CCCCCCCCC(O)/C=C/CCCCCCC(=O)O (centres unmarked) [Compound 10-HOME, (E)-10-hydroxyoctadec-8-enoic acid]
effect on flagellum-driven swimming and swarming motilities [1]: inhibit flagellum-driven swimming and swarming motilities
effect on formation of bacterial biofilms (bacterial biofilms): stimulate the formation of bacterial biofilms in vitro
